Bridge positions count the residues as written; N and C are the ends. Square brackets hold non-standard residues; d marks the D form. Peptide text beside a SMILES is read from it. * marks the point of attachment. Trp(1-CH2COOH) = N[C@@H](Cc1cn(CC(=O)O)c2ccccc12)C(=O)O; CH2CON(CH2CH2)2NCH2COOH = O=C(O)CN1CCN(C(=O)C*)CC1; Nle(6-morpholino) = N[C@@H](CCCCN1CCOCC1)C(=O)O; Phe(3-COOH) = N[C@@H](Cc1cccc(C(=O)O)c1)C(=O)O; NMePhe(3-Cl) = CN[C@@H](Cc1cccc(Cl)c1)C(=O)O; NMeY = CN[C@@H](Cc1ccc(O)cc1)C(=O)O; PEG4 = NCCOCCOCCOCCOCCC(=O)O
What was measured:
[1] = target: T1, human transferrin receptor (hTfR) (Homo sapiens, UniProt P02786); assay: SPR measurement under pH 7.4 conditions (Biacore T200, CM3 chip, hTfR captured by His Tag antibody); assay type: binding; details: pH 7.4, single-cycle kinetics; read-out: hTfR SPR pH7.4 KD
[2] = target: T1, human transferrin receptor (hTfR); assay: SPR measurement under pH 6.0 conditions (Biacore T200, NTA chip, immobilized hTfR); assay type: binding; details: pH 6.0, single-cycle kinetics; read-out: hTfR SPR pH6.0 KD

T1 sequence (P02786 whole entry): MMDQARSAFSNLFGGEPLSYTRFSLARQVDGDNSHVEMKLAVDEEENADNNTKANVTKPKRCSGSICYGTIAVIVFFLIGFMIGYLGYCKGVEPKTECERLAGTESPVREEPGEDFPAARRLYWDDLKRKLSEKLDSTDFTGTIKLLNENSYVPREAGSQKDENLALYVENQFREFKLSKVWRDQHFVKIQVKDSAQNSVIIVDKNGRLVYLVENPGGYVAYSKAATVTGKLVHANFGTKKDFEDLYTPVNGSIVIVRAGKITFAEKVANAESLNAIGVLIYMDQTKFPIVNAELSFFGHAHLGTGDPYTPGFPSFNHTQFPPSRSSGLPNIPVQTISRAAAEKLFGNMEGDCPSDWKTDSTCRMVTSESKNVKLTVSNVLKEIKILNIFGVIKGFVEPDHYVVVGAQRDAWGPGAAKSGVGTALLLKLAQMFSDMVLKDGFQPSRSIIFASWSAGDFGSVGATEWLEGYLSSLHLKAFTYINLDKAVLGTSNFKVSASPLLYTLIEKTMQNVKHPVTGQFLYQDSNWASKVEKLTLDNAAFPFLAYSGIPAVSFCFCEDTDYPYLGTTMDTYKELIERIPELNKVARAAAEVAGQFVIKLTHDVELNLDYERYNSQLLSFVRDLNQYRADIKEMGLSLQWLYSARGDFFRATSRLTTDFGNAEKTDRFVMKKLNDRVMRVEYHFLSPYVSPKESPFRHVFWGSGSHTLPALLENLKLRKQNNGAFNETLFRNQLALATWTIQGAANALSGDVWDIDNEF

Kd [1] [nM] | Kd [2] [nM] | SMILES
14.5 | 91.4 | CC[C@H](C)[C@@H]1NC(=O)[C@H](Cc2ccc(OCCNC(=O)N3CCN(CC(=O)O)CC3)cc2)NC(=O)[C@H](Cc2ccc(O)cc2)NC(=O)[C@H](CC(N)=O)NC(=O)[C@H](Cc2cn(CC(=O)O)c3ccccc23)NC(=O)[C@H](C(C)C)NC(=O)[C@H](Cc2cccc(Cl)c2)N(C)C(=O)[C@H](C(C)C)NC(=O)[C@H](C)NC(=O)CSC[C@@H](C(=O)NCCOCCOCCOCCOCCC(N)=O)NC(=O)[C@H](Cc2ccc(O)cc2)N(C)C(=O)[C@H](Cc2ccncc2)NC(=O)[C@H](CCCCN2CCOCC2)NC(=O)[C@H](CCC(=O)NCCOCCOCCOCCOCCOCCOCCOCCOC)NC(=O)[C@H]([C@@H](C)CC)NC1=O [compound 41]
5.11 | 34.4 | CC[C@H](C)[C@@H]1NC(=O)[C@H](Cc2ccc(OCC(=O)N3CCN(CC(=O)O)CC3)cc2)NC(=O)[C@H](Cc2ccc(O)cc2)NC(=O)[C@H](CC(N)=O)NC(=O)[C@H](Cc2c[nH]c3ncccc23)NC(=O)[C@H](C(C)C)NC(=O)[C@H](Cc2cccc(Cl)c2)N(C)C(=O)[C@H](C(C)C)NC(=O)[C@H](C)NC(=O)CSC[C@@H](C(=O)NCCOCCOCCOCCOCCC(N)=O)NC(=O)[C@H](Cc2ccc(O)cc2)N(C)C(=O)[C@H](Cc2cccc(C(=O)O)c2)NC(=O)[C@H](CCCNC(=N)N)NC(=O)[C@H](CCC(=O)NCCOCCOCCOCCOCCOCCOCCOCCOC)NC(=O)[C@H]([C@@H](C)CC)NC1=O [compound 42]

Further lines, the molecule ahead of its results:

SMILES | Kd [1] [nM] | Kd [2] [nM]
CC[C@H](C)[C@@H]1NC(=O)[C@H](Cc2ccc(OCC(=O)N3CCN(CC(=O)O)CC3)cc2)NC(=O)[C@H](Cc2ccc(O)cc2)NC(=O)[C@H](CC(N)=O)NC(=O)[C@H](Cc2cn(CC(=O)O)c3ccccc23)NC(=O)[C@H](C(C)C)NC(=O)[C@H](Cc2cccc(Cl)c2)N(C)C(=O)[C@H](C(C)C)NC(=O)[C@H](C)NC(=O)CSC[C@@H](C(=O)NCCOCCOCCOCCOCCC(N)=O)NC(=O)[C@H](Cc2ccc(O)cc2)N(C)C(=O)[C@H](Cc2cccc(C(=O)O)c2)NC(=O)[C@H](CCCCN2CCOCC2)NC(=O)[C@H](CCC(N)=O)NC(=O)[C@H]([C@@H](C)CC)NC1=O [compound 35] ({CH2CO}-AV[NMePhe(3-Cl)]V[Trp(1-CH2COOH)]NYY(CH2CON(CH2CH2)2NCH2COOH)IIQ[Nle(6-morpholino)][Phe(3-COOH)][NMeY]C[PEG4]-NH2; thioether N-15) | 1.74 | 37
CC[C@H](C)[C@@H]1NC(=O)[C@H](Cc2ccc(OCC(=O)N3CCN(CC(=O)O)CC3)cc2)NC(=O)[C@H](Cc2ccc(O)cc2)NC(=O)[C@H](CC(N)=O)NC(=O)[C@H](Cc2cn(CC(=O)O)c3ccccc23)NC(=O)[C@H](C(C)C)NC(=O)[C@H](Cc2cccc(Cl)c2)N(C)C(=O)[C@H](C(C)C)NC(=O)[C@H](C)NC(=O)CSC[C@@H](C(=O)NCCOCCOCCOCCOCCC(N)=O)NC(=O)[C@H](Cc2ccc(O)cc2)N(C)C(=O)[C@H](Cc2cccc(C(=O)O)c2)NC(=O)[C@H](CCCNC(=N)N)NC(=O)[C@H](CCC(N)=O)NC(=O)[C@H]([C@@H](C)CC)NC1=O [compound 36] | 2.47 | 44
CC[C@H](C)[C@@H]1NC(=O)[C@H](Cc2ccc(OCC(=O)N3CCN(CC(=O)O)CC3)cc2)NC(=O)[C@H](Cc2ccc(O)cc2)NC(=O)[C@H](CC(N)=O)NC(=O)[C@H](Cc2cn(CC(=O)O)c3ccccc23)NC(=O)[C@H](C(C)C)NC(=O)[C@H](Cc2cccc(Cl)c2)N(C)C(=O)[C@H](C(C)C)NC(=O)[C@H](C)NC(=O)CSC[C@@H](C(=O)NCCOCCOCCOCCOCCC(N)=O)NC(=O)[C@H](Cc2ccc(O)cc2)N(C)C(=O)[C@H](Cc2ccncc2)NC(=O)[C@H](CCCCN2CCOCC2)NC(=O)[C@H](CCC(=O)NC[C@H](O)[C@@H](O)[C@H](O)[C@H](O)CO)NC(=O)[C@H]([C@@H](C)CC)NC1=O [compound 40] | 43.8 | 42.6

Reference: patent publication EP4667483A1, “HUMAN TRANSFERRIN RECEPTOR-BINDING PEPTIDE” (JCR Pharmaceuticals Co., Ltd., priority 2023, dated 2024)
